Earlier results on two molecules are cited in patent US12478593B2, “Formulations for hair growth” (JENIVISION INC., priority 2016, dated 2025).

The structures appear in SMILES notation.

One data set concerns eyelashes. The settings on record: humans.
Data set [1] has as its system eyelash hair follicle growth cycle. To be noted: mouse eyelash model.
The conditions of data set [2]: Xalatan.

Consider `CCNC(=O)CCC/C=C\C[C@@H]1[C@@H](/C=C/[C@@H](O)CCc2ccccc2)[C@H](O)C[C@@H]1O` [bimatoprost], for which the eyelash growth entry in the data set with eyelashes was “produces eyelash growth”. Moreover, in data set [1], the “effect on anagen growth phase of eyelashes” value is “increased entry into anagen and extension of the anagen growth phase”. Regarding `CC(C)OC(=O)CCC/C=C\C[C@@H]1[C@@H](CC[C@@H](O)CCc2ccccc2)[C@H](O)C[C@@H]1O` [latanoprost], the “stability in aqueous solution (de-esterification)” value in data set [2] was “facile hydrolysis”.
